Each compound was assayed on Acinetobacter baumannii (ATCC 19606) (assay: Anti-bacterial activity assay). Conditions: ATCC19606, 50 µM.
Format: cell-based
In short: (§1)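 Compounds tested once at 50 µM in duplicate against mid-log cultures at 5 × 10^5 CFU/mL, incubated 18 h at 37 °C without shaking. Growth read by absorbance at 600 nm; percentage inhibition calculated relative to bacteria-only wells. Vancomycin (Gram-positive) and colistin (Gram-negative) served as plate controls.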

Compound | inhibition at 50 µM
Cc1ccc(C)c(-c2cc3c4nn(CC(=O)N(C)c5ccc(F)cc5)c(=O)n4ccn3n2)c1 [SN00790641, Fc1ccc(cc1)N(C)C(=O)Cn1nc2c3cc(nn3ccn2c1=O)c1cc(C)ccc1C] | 4.72%
O=C(NC1CCCCC1)c1nc(Nc2ccccc2)c2ccccc2n1 [SN00792461, O=C(NC1CCCCC1)c1nc(Nc2ccccc2)c2ccccc2n1] | 10.8%
Cc1ccc(NC(=O)CN2C(=O)C3CCCCN3c3ccc(C(=O)N4CCCC4)cc32)cc1 (stereo not shown) [SN00792764, Cc1ccc(cc1)NC(=O)CN1C(=O)C2CCCCN2c2ccc(cc12)C(=O)N1CCCC1] | 4.12%

The compounds below were run on Klebsiella pneumoniae (ATCC 700603) (assay: Anti-bacterial activity assay). Conditions: ATCC700603, 50 µM, read-out: Bacterial Inhibition K. pneumoniae.
Format: cell-based
In short: as §1

Compound | inhibition at 50 µM
Cc1ccc(C)c(-c2cc3c4nn(CC(=O)N(C)c5ccc(F)cc5)c(=O)n4ccn3n2)c1 [SN00790641, Fc1ccc(cc1)N(C)C(=O)Cn1nc2c3cc(nn3ccn2c1=O)c1cc(C)ccc1C] | 6.73%
O=C(NC1CCCCC1)c1nc(Nc2ccccc2)c2ccccc2n1 [SN00792461, O=C(NC1CCCCC1)c1nc(Nc2ccccc2)c2ccccc2n1] | 12.6%
Cc1ccc(NC(=O)CN2C(=O)C3CCCCN3c3ccc(C(=O)N4CCCC4)cc32)cc1 (stereo not shown) [SN00792764, Cc1ccc(cc1)NC(=O)CN1C(=O)C2CCCCN2c2ccc(cc12)C(=O)N1CCCC1] | 5.08%

What follows are compounds tested on methicillin resistant Staphylococcus aureus (ATCC 43300) (assay: Anti-bacterial activity assay). Conditions: Staphylococcus aureus, ATCC43300, 50 µM; read-out: Bacterial Inhibition S. aureus.
Format: cell-based
In short: as §1

Compound | inhibition at 50 µM
Cc1ccc(C)c(-c2cc3c4nn(CC(=O)N(C)c5ccc(F)cc5)c(=O)n4ccn3n2)c1 [SN00790641, Fc1ccc(cc1)N(C)C(=O)Cn1nc2c3cc(nn3ccn2c1=O)c1cc(C)ccc1C] | -6.6%
O=C(NC1CCCCC1)c1nc(Nc2ccccc2)c2ccccc2n1 [SN00792461, O=C(NC1CCCCC1)c1nc(Nc2ccccc2)c2ccccc2n1] | 8.09%
Cc1ccc(NC(=O)CN2C(=O)C3CCCCN3c3ccc(C(=O)N4CCCC4)cc32)cc1 (stereo not shown) [SN00792764, Cc1ccc(cc1)NC(=O)CN1C(=O)C2CCCCN2c2ccc(cc12)C(=O)N1CCCC1] | -1.85%

Each compound was assayed on Escherichia coli (ATCC 25922) (assay: Anti-bacterial activity assay). Conditions: Escherichia coli, ATCC25922, 50 µM; read-out: Bacterial Inhibition E. coli.
Format: cell-based
In short: as §1

Compound | inhibition at 50 µM
Cc1ccc(C)c(-c2cc3c4nn(CC(=O)N(C)c5ccc(F)cc5)c(=O)n4ccn3n2)c1 [SN00790641, Fc1ccc(cc1)N(C)C(=O)Cn1nc2c3cc(nn3ccn2c1=O)c1cc(C)ccc1C] | 0.25%
O=C(NC1CCCCC1)c1nc(Nc2ccccc2)c2ccccc2n1 [SN00792461, O=C(NC1CCCCC1)c1nc(Nc2ccccc2)c2ccccc2n1] | 3.63%
Cc1ccc(NC(=O)CN2C(=O)C3CCCCN3c3ccc(C(=O)N4CCCC4)cc32)cc1 (stereo not shown) [SN00792764, Cc1ccc(cc1)NC(=O)CN1C(=O)C2CCCCN2c2ccc(cc12)C(=O)N1CCCC1] | 3.43%

What follows are compounds tested on Neonatal foreskin fibroblast (NFF) cells (assay: Mammalian cell cytotoxicity assay (sulforhodamine B)). Conditions: Homo sapiens, NFF; 20 µM; ±SD.
Format: cell-based, human
In short: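 Cytotoxicity against neonatal foreskin fibroblasts was read by sulforhodamine B staining, with media-only, untreated, DMSO-vehicle and chloroquine controls. Dose–response started at 100 µM. Selectivity index = NFF IC50 divided by G. duodenalis BRIS/91/HEPU/1279 IC50.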

Compound | inhibition at 20 µM
Cc1ccc(C)c(-c2cc3c4nn(CC(=O)N(C)c5ccc(F)cc5)c(=O)n4ccn3n2)c1 [SN00790641, Fc1ccc(cc1)N(C)C(=O)Cn1nc2c3cc(nn3ccn2c1=O)c1cc(C)ccc1C] | 40.4 ± 1.1%
O=C(NC1CCCCC1)c1nc(Nc2ccccc2)c2ccccc2n1 [SN00792461, O=C(NC1CCCCC1)c1nc(Nc2ccccc2)c2ccccc2n1] | 21.3 ± 27.1%
Cc1ccc(NC(=O)CN2C(=O)C3CCCCN3c3ccc(C(=O)N4CCCC4)cc32)cc1 (stereo not shown) [SN00792764, Cc1ccc(cc1)NC(=O)CN1C(=O)C2CCCCN2c2ccc(cc12)C(=O)N1CCCC1] | 16.6 ± 20.4%

Same assay, conditions: Table S2; NFF vs 48 h Giardia IC50

Compound | SI (48h Gd)
Cc1ccc(C)c(-c2cc3c4nn(CC(=O)N(C)c5ccc(F)cc5)c(=O)n4ccn3n2)c1 [SN00790641, Fc1ccc(cc1)N(C)C(=O)Cn1nc2c3cc(nn3ccn2c1=O)c1cc(C)ccc1C] | > 5
O=C(NC1CCCCC1)c1nc(Nc2ccccc2)c2ccccc2n1 [SN00792461, O=C(NC1CCCCC1)c1nc(Nc2ccccc2)c2ccccc2n1] | > 2

Each compound was assayed on G. duodenalis BRIS/91/HEPU/1279 (assay: Primary Giardia screen at 10 µM (live-cell imaging, automated counting)). Conditions: 48 h.
Format: cell-based, Giardia duodenalis
In short: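 Compounds were tested once each at 10 μM final (0.2% DMSO) in culture medium under 3% O2, 5% CO2 in N2. Growth was read at 24 and 48 h by live-cell imaging with automated counting, and inhibition expressed as percent growth versus 0.2% DMSO vehicle after media-only background subtraction.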

Compound | Average % Inhibition 48h
Cc1ccc(C)c(-c2cc3c4nn(CC(=O)N(C)c5ccc(F)cc5)c(=O)n4ccn3n2)c1 [SN00790641, Fc1ccc(cc1)N(C)C(=O)Cn1nc2c3cc(nn3ccn2c1=O)c1cc(C)ccc1C] | > 90%

Same assay, conditions: Giardia duodenalis, 24 h, first singlicate assay, read-out: % Inhibition n=1 24h

Compound | inhibition at 10 µM
Cc1ccc(C)c(-c2cc3c4nn(CC(=O)N(C)c5ccc(F)cc5)c(=O)n4ccn3n2)c1 [SN00790641, Fc1ccc(cc1)N(C)C(=O)Cn1nc2c3cc(nn3ccn2c1=O)c1cc(C)ccc1C] | 88.6%
O=C(NC1CCCCC1)c1nc(Nc2ccccc2)c2ccccc2n1 [SN00792461, O=C(NC1CCCCC1)c1nc(Nc2ccccc2)c2ccccc2n1] | 44.7%
Cc1ccc(NC(=O)CN2C(=O)C3CCCCN3c3ccc(C(=O)N4CCCC4)cc32)cc1 (stereo not shown) [SN00792764, Cc1ccc(cc1)NC(=O)CN1C(=O)C2CCCCN2c2ccc(cc12)C(=O)N1CCCC1] | 43.9%

Same assay, conditions: Giardia duodenalis, 24 h, re-assessment, read-out: % Inhibition n=2 24h

Compound | inhibition at 10 µM
Cc1ccc(C)c(-c2cc3c4nn(CC(=O)N(C)c5ccc(F)cc5)c(=O)n4ccn3n2)c1 [SN00790641, Fc1ccc(cc1)N(C)C(=O)Cn1nc2c3cc(nn3ccn2c1=O)c1cc(C)ccc1C] | 70.6%
O=C(NC1CCCCC1)c1nc(Nc2ccccc2)c2ccccc2n1 [SN00792461, O=C(NC1CCCCC1)c1nc(Nc2ccccc2)c2ccccc2n1] | 74.4%
Cc1ccc(NC(=O)CN2C(=O)C3CCCCN3c3ccc(C(=O)N4CCCC4)cc32)cc1 (stereo not shown) [SN00792764, Cc1ccc(cc1)NC(=O)CN1C(=O)C2CCCCN2c2ccc(cc12)C(=O)N1CCCC1] | 27.1%

Same assay, conditions: Giardia duodenalis, 24 h, read-out: Average % Inhibition 24h

Compound | inhibition at 10 µM
Cc1ccc(C)c(-c2cc3c4nn(CC(=O)N(C)c5ccc(F)cc5)c(=O)n4ccn3n2)c1 [SN00790641, Fc1ccc(cc1)N(C)C(=O)Cn1nc2c3cc(nn3ccn2c1=O)c1cc(C)ccc1C] | 79.6%
O=C(NC1CCCCC1)c1nc(Nc2ccccc2)c2ccccc2n1 [SN00792461, O=C(NC1CCCCC1)c1nc(Nc2ccccc2)c2ccccc2n1] | 59.5%
Cc1ccc(NC(=O)CN2C(=O)C3CCCCN3c3ccc(C(=O)N4CCCC4)cc32)cc1 (stereo not shown) [SN00792764, Cc1ccc(cc1)NC(=O)CN1C(=O)C2CCCCN2c2ccc(cc12)C(=O)N1CCCC1] | 35.5%

Same assay, conditions: Giardia duodenalis, 48 h, first singlicate assay, read-out: % Inhibition n=1 48h

Compound | inhibition at 10 µM
Cc1ccc(C)c(-c2cc3c4nn(CC(=O)N(C)c5ccc(F)cc5)c(=O)n4ccn3n2)c1 [SN00790641, Fc1ccc(cc1)N(C)C(=O)Cn1nc2c3cc(nn3ccn2c1=O)c1cc(C)ccc1C] | 95%
O=C(NC1CCCCC1)c1nc(Nc2ccccc2)c2ccccc2n1 [SN00792461, O=C(NC1CCCCC1)c1nc(Nc2ccccc2)c2ccccc2n1] | 57.7%
Cc1ccc(NC(=O)CN2C(=O)C3CCCCN3c3ccc(C(=O)N4CCCC4)cc32)cc1 (stereo not shown) [SN00792764, Cc1ccc(cc1)NC(=O)CN1C(=O)C2CCCCN2c2ccc(cc12)C(=O)N1CCCC1] | 59%

Same assay, conditions: Giardia duodenalis, 48 h, re-assessment, read-out: % Inhibition n=2 48h

Compound | inhibition at 10 µM
Cc1ccc(C)c(-c2cc3c4nn(CC(=O)N(C)c5ccc(F)cc5)c(=O)n4ccn3n2)c1 [SN00790641, Fc1ccc(cc1)N(C)C(=O)Cn1nc2c3cc(nn3ccn2c1=O)c1cc(C)ccc1C] | 97.7%
O=C(NC1CCCCC1)c1nc(Nc2ccccc2)c2ccccc2n1 [SN00792461, O=C(NC1CCCCC1)c1nc(Nc2ccccc2)c2ccccc2n1] | 88.5%
Cc1ccc(NC(=O)CN2C(=O)C3CCCCN3c3ccc(C(=O)N4CCCC4)cc32)cc1 (stereo not shown) [SN00792764, Cc1ccc(cc1)NC(=O)CN1C(=O)C2CCCCN2c2ccc(cc12)C(=O)N1CCCC1] | 65.8%

Same assay, conditions: Giardia duodenalis, 48 h, read-out: Average % Inhibition 48h

Compound | inhibition at 10 µM
Cc1ccc(C)c(-c2cc3c4nn(CC(=O)N(C)c5ccc(F)cc5)c(=O)n4ccn3n2)c1 [SN00790641, Fc1ccc(cc1)N(C)C(=O)Cn1nc2c3cc(nn3ccn2c1=O)c1cc(C)ccc1C] | 96.3%
O=C(NC1CCCCC1)c1nc(Nc2ccccc2)c2ccccc2n1 [SN00792461, O=C(NC1CCCCC1)c1nc(Nc2ccccc2)c2ccccc2n1] | 73.1%
Cc1ccc(NC(=O)CN2C(=O)C3CCCCN3c3ccc(C(=O)N4CCCC4)cc32)cc1 (stereo not shown) [SN00792764, Cc1ccc(cc1)NC(=O)CN1C(=O)C2CCCCN2c2ccc(cc12)C(=O)N1CCCC1] | 62.4%

What follows are compounds tested on G. duodenalis BRIS/91/HEPU/1279 (assay: Giardia dose response assay, assemblage B). Conditions: Giardia duodenalis, 24 h, read-out: G. duodenalis IC50 24h, Table S2; 24 h; ±SD; max 10 µM.
Format: cell-based, Giardia duodenalis
In short: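 Assemblage B trophozoites (BRIS/91/HEPU/1279, 1.5 × 10^4 parasites/well) faced 8–12-point doubling dilutions in duplicate, incubated 48 h at 37 °C under 3% O2, 5% CO2 in N2. Parasites were imaged and counted at 24 and 48 h. Growth inhibition was taken versus vehicle controls minus background, with IC50 by log-linear interpolation.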

Compound | IC50
Cc1ccc(C)c(-c2cc3c4nn(CC(=O)N(C)c5ccc(F)cc5)c(=O)n4ccn3n2)c1 [SN00790641, Fc1ccc(cc1)N(C)C(=O)Cn1nc2c3cc(nn3ccn2c1=O)c1cc(C)ccc1C] | 2.84 µM
O=C(NC1CCCCC1)c1nc(Nc2ccccc2)c2ccccc2n1 [SN00792461, O=C(NC1CCCCC1)c1nc(Nc2ccccc2)c2ccccc2n1] | 5.35 µM
Cc1ccc(NC(=O)CN2C(=O)C3CCCCN3c3ccc(C(=O)N4CCCC4)cc32)cc1 (stereo not shown) [SN00792764, Cc1ccc(cc1)NC(=O)CN1C(=O)C2CCCCN2c2ccc(cc12)C(=O)N1CCCC1] | > 10 µM

Same assay, conditions: Giardia duodenalis, 48 h, Table S2; 48 h; ±SD; max 10 µM; read-out: G. duodenalis IC50 48h

Compound | IC50
Cc1ccc(C)c(-c2cc3c4nn(CC(=O)N(C)c5ccc(F)cc5)c(=O)n4ccn3n2)c1 [SN00790641, Fc1ccc(cc1)N(C)C(=O)Cn1nc2c3cc(nn3ccn2c1=O)c1cc(C)ccc1C] | 3.41 ± 2.02 µM
O=C(NC1CCCCC1)c1nc(Nc2ccccc2)c2ccccc2n1 [SN00792461, O=C(NC1CCCCC1)c1nc(Nc2ccccc2)c2ccccc2n1] | 7.82 µM
Cc1ccc(NC(=O)CN2C(=O)C3CCCCN3c3ccc(C(=O)N4CCCC4)cc32)cc1 (stereo not shown) [SN00792764, Cc1ccc(cc1)NC(=O)CN1C(=O)C2CCCCN2c2ccc(cc12)C(=O)N1CCCC1] | > 10 µM

Same assay, conditions: Giardia duodenalis, read-out: % inhibition @ 10µM 48h (comment); Table S2 comment; 10 µM; 48 h

Compound | inhibition at 10 µM
Cc1ccc(NC(=O)CN2C(=O)C3CCCCN3c3ccc(C(=O)N4CCCC4)cc32)cc1 (stereo not shown) [SN00792764, Cc1ccc(cc1)NC(=O)CN1C(=O)C2CCCCN2c2ccc(cc12)C(=O)N1CCCC1] | 45.9%
